One experiment deals with human PMN. In words: Inhibition of FMLP-stimulated production of superoxide radical anions. Type of experiment: cell-based. Particulars: Neutrophil, human neutrophils; for IC50: 4×10^-8 M FMLP. The method, then:
1. Preparation of human PMN
Blood was taken from healthy subjects by venous puncture and neutrophils were purified by dextran sedimentation and resuspended in the buffered medium.
2. Inhibition of FMLP-stimulated production of superoxide radical anions.
Neutrophils (2.5×10^5 ml^-1) were mixed with cytochrome C (1.2 mg/ml) in the wells of a microtitre plate. Compounds according to the invention were added in dimethyl sulphoxide (DMSO). Compound concentration ranged from 2.5 nM to 10 μM, the DMSO concentration was 0.1% v/v in all wells. After addition of cytochalasin b (5 μg×ml^-1) the plate was incubated for 5 min at 37° C. Neutrophils were then stimulated by addition of 4×10^-8 M FMLP and superoxide generation measured as superoxide dismutase inhibitable reduction of cytochrome C by monitoring the OD550 in a Thermomax microtitre plate spectrophotometer. Initial rates were calculated using a Softmax kinetic calculation programme. Blank wells contained 200 units of superoxide dismutase.
The inhibition of superoxide production was calculated as follows: [formula] Rx=Rate of the well containing the compound according to the invention. Ro=Rate in the control well.
Rb=Rate in the superoxide dismutase containing blank well.

Another experiment has as its system FMLP-induced skin oedema. The experiment can be described thus: Effect of intravenously administered compounds on the FMLP-induced skin oedema guinea pigs. Type of experiment: in vivo. Particulars: i.v., 1 mg/kg, guinea pig. As to the method: 5. Effect of intravenously administered compounds on the FMLP-induced skin oedema guinea pigs
Guinea pigs (600-800 g) were anaesthetized with pentobarbitone sodium (40 mg/kg, i.p.) and injected (i.v.) with a 0.5 ml mixture of pentamine sky blue (5% W/V) and ^125 I-HSA (1 μli/animal). 10 minutes later 3 intradermal injections of FMLP (10 μg/site), 1 injection of histamine (1 μg/site) and 1 injection of vehicle (100 μl of 0.2% DMSO V/V in Hanks Buffered salt solution) were made on the left hand side of the animal (preinjection sites). 5 minutes later the drug (1 ml/kg) or the vehicle (50% PEG 400 V/V in distilled water, […]) was administered (i.v.). 10 minutes later an identical pattern of interadermal injections was made on the opposite flank of the animal (post-injection sites). These responses were allowed-to develop for 15 minutes before the animal was sacrificed and a blood sample taken.
Skin sites and plasma samples were counted for 1 minute on a gamma counter an the degree of oedema calculated as μl plasma/skin site. Statistical analysis was done by a paired t-test on the mean of the 3 preinjection site values of μl plasma obtained for FMLP/animal. The percentage inhibition of drug or vehicle was calculated as follow

Each structure is given as a SMILES string.

Regarding `COC(=O)CCc1c(C(=O)c2ccc(Cl)cc2)oc2cc(NC(=O)C(=O)OC)ccc12` [Example 1, 3-[2-(4-Chlorobenzoyl)-6-(2-methoxy-2-oxo-acetamido)-3-benzofuranyl]propanoic acid, methylester], in the experiment with human PMN, the inhibition at 10 µM was found to be 62% and it took 170 nM to reach half-maximal inhibition (IC50).

In the case of `CCOC(=O)C(=O)Nc1ccc2c(CCC(=O)OC)c(C(=O)c3ccc(C)cc3)oc2c1` [Example 2], the “% inhibition” value in the experiment on FMLP-induced skin oedema is reported as 47%.

In the experiment with human PMN, `CCOC(=O)C(=O)Nc1ccc2c(C)c(C(=O)c3ccc(C)cc3)oc2c1` [Example 6] came in with an inhibition at 10 µM of 67% and an IC50 of 110 nM.

With `CCOC(=O)C(=O)Nc1ccc2c(CCC(=O)OC)c(C(=O)c3ccc(Cl)cc3)oc2c1` [Example 7], in the experiment with human PMN, the inhibition at 10 µM amounted to 86% and the IC50 was found to be 900 nM.

On to `CCOC(=O)C(=O)Nc1ccc2c(CCC(=O)OC)c(C(=O)c3ccncc3)oc2c1` [Example 344], for which, in the experiment on human PMN, the inhibition at 10 µM was 81% and the IC50 amounted to 200 nM.

As usually defined, the inhibition is the change of the read-out against control, counted positive when it falls. As usually defined, the IC50 is the concentration at which inhibition is half-maximal. Read a high IC50 as weaker potency in that assay. One may read the % inhibition as the drop in the measured response relative to a control, in per cent. Low readings indicate a weak effect, high ones a strong effect.

The values above are taken from patent US5565488A, “Oxalylamino-benzofuran- and benzothienyl-derivatives” (Bayer Aktiengesellschaft, priority 1994, dated 1996).
